Assay results as given in ChEMBL document CHEMBL5608113, “Targeting of CAF-induced therapy resistance in CRC organoid-stroma co-cultures” (2024).

Tests used:
Format in all cases: functional, Homo sapiens
Details in all cases: Homo sapiens, read-out: Cell Viability; for viability at 1 µM: Concentration 1 uM; for viability at 10 µM: Concentration 10 uM
[1] = tested on: Colon cancer organoid; assay: Targeting of F14 CAF-induced therapy resistance in O14 CRC organoid-stroma co-culture. Cell viability is reported with Gefitinib.
[2] = tested on: Colon cancer organoid; assay: Targeting of F14 CAF-induced therapy resistance in O14 CRC organoid-stroma co-culture. Cell viability is reported without Gefitinib.
[3] = tested on: Colon cancer organoid; assay: Targeting of F14 CAF-induced therapy resistance in O23 CRC organoid-stroma co-culture. Cell viability is reported with SN-38.
[4] = tested on: Colon cancer organoid; assay: Targeting of F14 CAF-induced therapy resistance in O23 CRC organoid-stroma co-culture. Cell viability is reported with Gefitinib.
[5] = tested on: Colon cancer organoid; assay: Targeting of F14 CAF-induced therapy resistance in O23 CRC organoid-stroma co-culture. Cell viability is reported without Gefitinib.

| Structure (SMILES) | viability at 1 µM [1] [%] | viability at 1 µM [2] [%] | viability at 1 µM [3] [%] | viability at 1 µM [4] [%] | viability at 1 µM [5] [%] | viability at 10 µM [1] [%] | viability at 10 µM [2] [%] | viability at 10 µM [3] [%] | viability at 10 µM [4] [%] | viability at 10 µM [5] [%] |
| --- | --- | --- | --- | --- | --- | --- | --- | --- | --- | --- |
| Cc1cc(C)c(-n2ccn3nc(-c4cccnc4)cc23)cc1NC(=O)c1cc(C#N)cc(S(F)(F)(F)(F)F)c1 [BAY-826] | 58.7 | 145 | 64.2 | 58.2 | 102 |  |  |  |  |  |
| Cc1c(NC(=O)c2cc(C(N)=O)nc3cc(F)ccc23)c(C(F)(F)F)nn1Cc1ccc(C#N)cc1 [BAY-876] |  |  |  |  |  | 5.75 | 16.3 | 39.6 | 15 | 43.8 |
| CN1CCN(c2cnc3c(C4CCN(C(=O)c5ccc(OC(F)(F)F)cc5N)CC4)ncnc3c2)CC1 [BAY-885] |  |  |  |  |  | 21.7 | 114 | 78 | 59.7 | 115 |
| O=C(Nc1ccc(Oc2ccc(F)cc2)cc1)N1CCc2ncccc2[C@H]1c1ccc(F)cc1 [BAY-897] | 32.3 | 80 | 61.9 | 47.5 | 111 |  |  |  |  |  |
| O=C(Nc1cnc(Oc2ccc(F)cc2)nc1)N1CCc2ncccc2[C@@H]1c1ccc(F)cc1 [BAY-899] |  |  |  |  |  | 39.4 | 98.8 | 59.1 | 63.6 | 223 |
| CC1=C(C#N)C(c2ccc3c(c2)c(NC(=O)c2ccccc2C)nn3C)C(C#N)=C(C)N1 [BAY-974] |  |  |  |  |  | 48.3 | 109 | 57.9 | 40.1 | 103 |
| C[C@H](c1ccnc(Nc2nc3ccc(-c4cc(N(C)C)ncn4)cc3[nH]2)c1)N1CCN(C(=O)CC(F)(F)F)CC1 [BAY-985] |  |  |  |  |  | 77.2 | 163 | 80.5 | 84.3 | 160 |
| NS(=O)(=O)c1cc(NC(=O)Cc2ccccc2)ccc1Oc1cccc(Cl)c1 [BAY-1797] |  |  |  |  |  | 51.7 | 124 | 60.6 | 48.6 | 114 |
| CCc1ccccc1C(=O)Nc1n[nH]c2c(C)c(F)c(C3C(C#N)=C(C)N(C)C(C)=C3C#N)cc12 [BAY-3827] |  |  |  |  |  | 24.2 | 101 | 14.5 | 30.6 | 47.4 |
| Cn1cc(Cl)c2c(Oc3c(F)cc(Nc4cc(Cl)nc(N)n4)cc3F)ccnc21 [BAY-4900] |  |  |  |  |  | 30.9 | 85 | 54.4 | 40.3 | 107 |
| Cc1c(N2CCCC2)nc2ccc(Br)cc2c1C(=O)NC[C@H](CCC(=O)O)c1ccccc1Cl [BAY-6672] |  |  |  |  |  | 37.9 | 138 | 58.4 | 42.2 | 81.2 |
| O=C(O)[C@H]1[C@H](Cn2nnc3ccccc3c2=O)CC[C@@H]1C(=O)c1ccc(OCCC2CCOCC2)cc1 [BAY-7598] | 48.5 | 122 | 99.1 | 41.8 | 130 |  |  |  |  |  |
| COc1cc(N[C@@H]2CCCC[C@]2(O)C(F)(F)F)ccc1F [BAY-9897] | 40.2 | 86.4 | 78.5 | 66.7 | 81.6 |  |  |  |  |  |
| NC(=O)c1ccc2nc(-c3ccc(C4(N)CCC4)cc3)c(-c3ccccc3)n2n1 [BAY-1125976] | 52.1 | 152 | 47.7 | 38 | 86 |  |  |  |  |  |
| CC(=O)N1CCC(c2ccc(C(=O)NC3=NCCN3)cc2C(F)(F)F)CC1 [BI 0054] |  |  |  |  |  | 17.4 | 46.7 | 74.4 | 54.5 | 120 |
| CN(C)C(=O)Cn1cc(-c2nc(C3(c4ccc(-c5cnc(N)nc5)cc4)CC3)no2)cn1 [BI 0153] |  |  |  |  |  | 82.1 | 110 | 98.3 | 48.9 | 171 |
| COc1ccc2c(O[C@@H]3C[C@H]4C(=O)N[C@]5(C(=O)O)CC5/C=C\CCCCC[C@H](NC(=O)OC5CCCC5)C(=O)N4C3)cc(-c3csc(NC(=O)C(C)C)n3)nc2c1C (stereo not given in full) [BI 1230] |  |  |  |  |  | 50 | 152 | 77.1 | 63.1 | 141 |
| O=C(N[C@H]1CCCCC/C=C\C2C[C@@]2(C(=O)O)NC(=O)[C@@H]2C[C@@H](Oc3ccncc3)CN2C1=O)OC1CCCC1 (stereo not given in full) [BI 1675] |  |  |  |  |  | 62 | 102 | 89.7 | 51 | 136 |
| CCOCCn1cc(C(=O)Nc2ccc(-n3nc(-c4cccnc4)cc3C(F)(F)F)cn2)ccc1=O [BI 1935] |  |  |  |  |  | 40.1 | 82.6 | 64.4 | 70.8 | 98.5 |
| C[C@H](NC(=O)c1cnc2n1[C@](C)(Cc1ccc(C#N)cc1)C(=O)N2c1cc(Cl)c(F)c(Cl)c1)C(=O)NC1(c2ccccn2)CC1 [BI 1950] |  |  |  |  |  | 44.4 | 125 | 85.8 | 52.2 | 104 |
| O=C(Nc1ccc(-n2nc(-c3cccnc3)cc2C(F)(F)F)cn1)c1ccc(-c2ccccc2)c(F)c1 [BI 2049] | 24.6 | 132 | 97.9 | 32.7 | 103 |  |  |  |  |  |
| CC(C)(C#Cc1ccc(NC(=O)COc2ccccc2C(=O)c2ccccc2)c(Cl)c1)C(=O)O [BI 2439] |  |  |  |  |  | 36.7 | 159 | 82.7 | 98.3 | 160 |
| Cc1c(NC(=O)COc2ccc(Cl)cc2C(=O)c2cc(F)cc(C(F)(F)F)c2)ccc(C(=O)O)c1F [BI 2540] |  |  |  |  |  | 64.5 | 124 | 67.8 | 79.4 | 132 |
| O=C(NC[C@@H]1[C@H]2CN(C(=O)OCc3cc(C(F)(F)F)cc(C(F)(F)F)c3)C[C@@H]12)c1ccc2[nH]nnc2c1 [BI 2545] |  |  |  |  |  | 43 | 105 | 105 | 83.8 | 142 |
| Cc1nccc(COC(=O)N2C[C@@H]3[C@@H](CNC(=O)c4ccc5[nH]nnc5c4)[C@@H]3C2)n1 [BI 3017] |  |  |  |  |  | 7.21 | 7.82 | 76 | 38.3 | 161 |
| CCS(=O)(=O)c1cc2cc(C[C@@](O)(CC(C)(C)c3ccc(F)cc3C(N)=O)C(F)(F)F)[nH]c2cn1 [BI 3047] | 44.9 | 137 | 71 | 46.6 | 139 |  |  |  |  |  |
| CCOC(=O)c1cc2cc(-c3cc(C(=O)NCc4ccc(C(=O)O)cc4)nn3C)ccc2[nH]1 [BI 4394] | 59.3 | 95.7 | 83.8 | 77.1 | 148 |  |  |  |  |  |
